Measured values reported in patent US11986532B2 (Arvinas Operations, Inc., priority 2021, dated 2024).
Read-outs that look alike come from different tables or passages of the source.

Molecular target: T1, BCL6 (Homo sapiens, UniProt P41182)
T1 construct: endogenous in cells; host or cells: T47D breast cancer epithelial cells
Experiment: Immunofluorescence protocol for high content imaging of BCL6 (degradation) in T47D cells, 3 days compound treatment
Assay type: cell-based
Settings: for Dmax: read-out: Mean Dmax (%)** category; for DC50: read-out: Mean DC50 (nM)* category
In short: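 For degradation, compound series (3-fold, 11 points, top 0.1 or 1 μM final) were added to adherent T47D cultures for 3 days. BCL6 immunostaining used a rabbit antibody at 1:300 and an Alexa-488 secondary, with imaging at 10× magnification.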

[1] = T47D cells, 3 days compound treatment

Row | DC50 [1] [nM] | Dmax [1] [%] | SMILES | Dmax (T47D) [%] | DC50 [nM]
1 | – | – | CNC(=O)COc1cc2cc(Nc3nc(N4CCC(O[C@H]5C[C@H](N6CCN(c7ccc8c(c7C)CN(C7CCC(=O)NC7=O)C8=O)CC6)C5)CC4)ncc3Cl)ccc2n(C(C)C)c1=O (stereo partly drawn) [Compound 416, 2-({6-[(5-chloro-2-{4-[(1r,3r)-3-{4-[2-(2,6-dioxopiperidin-3-yl)-4-methyl-1-oxo-2,3-dihydro-1H-isoindol-5-yl]piperazin-1-yl}cyclobutoxy]piperidin-1-yl}pyrimidin-4-yl)amino]-2-oxo-1-(propan-2-yl)-1,2-dihydroquinolin-3-yl}oxy)-N-methylacetamide] | ≥ 70 | < 10
2 | < 10 | 50 to 70 | CNC(=O)COc1cc2cc(Nc3nc(N4CCC(CN5CCC6(CC5)CN(c5cc(OC)c7c(c5)C(=O)N(C5CCC(=O)NC5=O)C7=O)C6)CC4)ncc3Cl)ccc2n(C(C)C)c1=O (stereo not drawn) [Compound 83, 2-{[6-({5-chloro-2-[4-({2-[2-(2,6-dioxopiperidin-3-yl)-7-methoxy-1,3-dioxo-2,3-dihydro-1H-isoindol-5-yl]-2,7-diazaspiro [3.5]nonan-7-yl}methyl)piperidin-1-yl]pyrimidin-4-yl}amino)-2-oxo-1-(propan-2-yl)-1,2-dihydroquinolin-3-yl]oxy}-N-methylacetamide] | – | –
3 | – | – | CNC(=O)COc1cc2cc(Nc3nc(N4CCC(O[C@H]5C[C@H](N6CCC(c7cc8c(cn7)C(=O)N(C7CCC(=O)NC7=O)C8)CC6)C5)CC4)ncc3Cl)ccc2n(C(C)C)c1=O (stereo partly drawn) [Compound 219, 2-({6-[(5-chloro-2-{4-[(1r,3r)-3-{4-[2-(2,6-dioxopiperidin-3-yl)-3-oxo-1H,2H,3H-pyrrolo[3,4-c]pyridin-6-yl]piperidin-1-yl}cyclobutoxy]piperidin-1-yl}pyrimidin-4-yl)amino]-2-oxo-1-(propan-2-yl)-1,2-dihydroquinolin-3-yl}oxy)-N-methylacetamide] | 50 to 70 | < 10
4 | – | – | CNC(=O)COc1cc2c(F)c(Nc3nc(N4CCC(O[C@H]5C[C@H](N6CCC(c7ccc8c(c7F)CN([C@@H]7CCC(=O)NC7=O)C8=O)CC6)C5)CC4)ncc3Cl)ccc2n(C(C)C)c1=O [Compound 381, 2-({6-[(5-chloro-2-{4-[(1r,3r)-3-(4-{2-[(3R)-2,6-dioxopiperidin-3-yl]-4-fluoro-1-oxo-2,3-dihydro-1H-isoindol-5-yl}piperidin-1-yl)cyclobutoxy]piperidin-1-yl}pyrimidin-4-yl)amino]-5-fluoro-2-oxo-1-(propan-2-yl)-1,2-dihydroquinolin-3-yl}oxy)-N-methylacetamide] | ≥ 70 | < 10
5 | < 10 | ≥ 70 | CNC(=O)COc1cc2c(F)c(Nc3nc(N4CCC(CN5CCC6(CN(c7ccc8c(c7)CN(C7CCC(=O)NC7=O)C8=O)C6)C(F)(F)C5)CC4)ncc3Cl)ccc2n(C(C)C)c1=O (stereo not drawn) [Compound 171, 2-{[6-({5-chloro-2-[4-({2-[2-(2,6-dioxopiperidin-3-yl)-1-oxo-2,3-dihydro-1H-isoindol-5-yl]-5,5-difluoro-2,7-diazaspiro[3.5]nonan-7-yl}methyl)piperidin-1-yl]pyrimidin-4-yl}amino)-5-fluoro-2-oxo-1-(propan-2-yl)-1,2-dihydroquinolin-3-yl]oxy}-N-methylacetamide] | – | –
6 | < 10 | 50 to 70 | CNC(=O)COc1cc2cc(Nc3nc(N4CCC(CN5CCC6(CN(c7ccc8c(c7)C(=O)N(C7CCC(=O)NC7=O)C8=O)C6)C(F)(F)C5)CC4)ncc3Cl)ccc2n(C(C)C)c1=O (stereo not drawn) [Compound 38, 2-{[6-({5-chloro-2-[4-({2-[2-(2,6-dioxopiperidin-3-yl)-1,3-dioxo-2,3-dihydro-1H-isoindol-5-yl]-5,5-difluoro-2,7-diazaspiro[3.5]nonan-7-yl}methyl)piperidin-1-yl]pyrimidin-4-yl}amino)-2-oxo-1-(propan-2-yl)-1,2-dihydroquinolin-3-yl]oxy}-N-methylacetamide] | – | –
7 | – | – | CNC(=O)COc1cc2cc(Nc3nc(N4CCC(N5CCC56CN(C5CCN(c7ccc8c(c7)CN(C7CCC(=O)NC7=O)C8=O)C5)C6)CC4)ncc3Cl)ccc2n(C(C)C)c1=O (stereo not drawn) [Compound 234, 2-{[6-({5-chloro-2-[4-(6-{1-[2-(2,6-dioxopiperidin-3-yl)-1-oxo-2,3-dihydro-1H-isoindol-5-yl]pyrrolidin-3-yl}-1,6-diazaspiro[3.3]heptan-1-yl)piperidin-1-yl]pyrimidin-4-yl}amino)-2-oxo-1-(propan-2-yl)-1,2-dihydroquinolin-3-yl]oxy}-N-methylacetamide] | 50 to 70 | < 10
8 | – | – | CNC(=O)COc1cc2cc(Nc3nc(N4CCC(O[C@H]5C[C@H](N6CCN(c7ccc8c(c7F)CN([C@@H]7CCC(=O)NC7=O)C8=O)[C@H](C)C6)C5)CC4)ncc3Cl)ccc2n(C(C)C)c1=O [Compound 395, 2-({6-[(5-chloro-2-{4-[(1r,3r)-3-[(3R)-4-{2-[(3R)-2,6-dioxopiperidin-3-yl]-4-fluoro-1-oxo-2,3-dihydro-1H-isoindol-5-yl}-3-methylpiperazin-1-yl]cyclobutoxy]piperidin-1-yl}pyrimidin-4-yl)amino]-2-oxo-1-(propan-2-yl)-1,2-dihydroquinolin-3-yl}oxy)-N-methylacetamide] | ≥ 70 | < 10
9 | < 10 | < 50 | CNC(=O)COc1cc2cc(Nc3nc(N4CCN(C(C)(C)C5CCC6(CCN(c7ccc8c(c7)CN(C7CCC(=O)NC7=O)C8=O)C6)C5)CC4)ncc3Cl)ccc2n(C(C)C)c1=O (stereo not drawn) [Compound 74, 2-{[6-({5-chloro-2-[4-(2-{2-[2-(2,6-dioxopiperidin-3-yl)-1-oxo-2,3-dihydro-1H-isoindol-5-yl]-2-azaspiro[4.4]nonan-7-yl}propan-2-yl)piperazin-1-yl]pyrimidin-4-yl}amino)-2-oxo-1-(propan-2-yl)-1,2-dihydroquinolin-3-yl]oxy}-N-methylacetamide] | – | –
10 | – | – | CNC(=O)COc1cc2cc(Nc3nc(N4CCN(CC5CCC6(CC5)CN(c5ccc7c(c5OC)CN(C5CCC(=O)NC5=O)C7=O)C6)CC4)ncc3Cl)ccc2n(C(C)C)c1=O (stereo not drawn) [Compound 331, 2-{[6-({5-chloro-2-[4-({2-[2-(2,6-dioxopiperidin-3-yl)-4-methoxy-1-oxo-2,3-dihydro-1H-isoindol-5-yl]-2-azaspiro[3.5]nonan-7-yl}methyl)piperazin-1-yl]pyrimidin-4-yl}amino)-2-oxo-1-(propan-2-yl)-1,2-dihydroquinolin-3-yl]oxy}-N-methylacetamide] | 50 to 70 | 10 to 50
11 | – | – | CNC(=O)COc1cc2cc(Nc3nc(N4CCC(O[C@H]5C[C@H](N6[C@@H](C)CN(c7ccc8c(c7)CN(C7CCC(=O)NC7=O)C8=O)C[C@@H]6C)C5)CC4)ncc3Cl)ccc2n(C(C)C)c1=O (stereo partly drawn) [Compound 254, 2-({6-[(5-chloro-2-{4-[(1r,3r)-3-[(2S,6S)-4-[2-(2,6-dioxopiperidin-3-yl)-1-oxo-2,3-dihydro-1H-isoindol-5-yl]-2,6-dimethylpiperazin-1-yl]cyclobutoxy]piperidin-1-yl}pyrimidin-4-yl)amino]-2-oxo-1-(propan-2-yl)-1,2-dihydroquinolin-3-yl}oxy)-N-methylacetamide] | ≥ 70 | < 10
12 | 10 to 50 | 50 to 70 | CNC(=O)COc1cc2cc(Nc3nc(N4CCC(OC5CCC(N6CCC(c7ccc8c(c7)C(=O)N(C7CCC(=O)NC7=O)C8=O)CC6)C5)CC4)ncc3Cl)ccc2n(C(C)C)c1=O (stereo not drawn) [Compound 42, 2-({6-[(5-chloro-2-{4-[(3-{4-[2-(2,6-dioxopiperidin-3-yl)-1,3-dioxo-2,3-dihydro-1H-isoindol-5-yl]piperidin-1-yl}cyclopentyl)oxy]piperidin-1-yl}pyrimidin-4-yl)amino]-2-oxo-1-(propan-2-yl)-1,2-dihydroquinolin-3-yl}oxy)-N-methylacetamide] | – | –
13 | – | – | CNC(=O)COc1cc2cc(Nc3nc(N4CCC(O[C@H]5C[C@H](N6CCN(c7ccc8c(c7)C(=O)N(C7CCC(=O)NC7=O)C8=O)C[C@H]6C)C5)CC4)ncc3Cl)ccc2n(C(C)C)c1=O (stereo partly drawn) [Compound 263, 2-({6-[(5-chloro-2-{4-[(1r,3r)-3-[(2R)-4-[2-(2,6-dioxopiperidin-3-yl)-1,3-dioxo-2,3-dihydro-1H-isoindol-5-yl]-2-methylpiperazin-1-yl]cyclobutoxy]piperidin-1-yl}pyrimidin-4-yl)amino]-2-oxo-1-(propan-2-yl)-1,2-dihydroquinolin-3-yl}oxy)-N-methylacetamide] | 50 to 70 | < 10
14 | < 10 | < 50 | CNC(=O)COc1cc2cc(Nc3nc(N4CCC(CN5CCC6(CN(c7ccc8c(c7)C(=O)N(C7CCC(=O)NC7=O)C8=O)C6)C(F)(F)C5)CC4)ncc3Cl)ccc2n(C)c1=O (stereo not drawn) [Compound 127, 2-{[6-({5-chloro-2-[4-({2-[2-(2,6-dioxopiperidin-3-yl)-1,3-dioxo-2,3-dihydro-1H-isoindol-5-yl]-5,5-difluoro-2,7-diazaspiro[3.5]nonan-7-yl}methyl)piperidin-1-yl]pyrimidin-4-yl}amino)-1-methyl-2-oxo-1,2-dihydroquinolin-3-yl]oxy}-N-methylacetamide] | – | –

Row | SMILES | DC50 [1] [nM] | Dmax [1] [%] | Dmax (T47D) [%] | DC50 [nM]
15 | CNC(=O)COc1cc2cc(Nc3nc(N4CCC(O[C@H]5C[C@H](N6CCC(c7ccc8c(c7F)CN(C7CCC(=O)NC7=O)C8=O)CC6)C5)CC4)ncc3Cl)ccc2n(C2CCC2)c1=O (stereo partly drawn) [Compound 190, 2-({6-[(5-chloro-2-{4-[(1r,3r)-3-{4-[2-(2,6-dioxopiperidin-3-yl)-4-fluoro-1-oxo-2,3-dihydro-1H-isoindol-5-yl]piperidin-1-yl}cyclobutoxy]piperidin-1-yl}pyrimidin-4-yl)amino]-1-cyclobutyl-2-oxo-1,2-dihydroquinolin-3-yl}oxy)-N-methylacetamide] | < 10 | ≥ 70 | – | –
